This note sets out measurements from patent US10172909B2, “Neuropeptide analogs, compositions, and methods for treating pain” (NeuroAdjuvants, Inc., priority 2010, dated 2019).

The subject of one data set is Sprague-Dawley rats. Conditions: rat, in vivo, iv.
The subject of another data set is mice. Briefly: formalin test of acute and chronic hyperalgesia in mice. The class given is in vivo. More on the design: AUC Acute: unit not given beside the values. Conditions: mouse formalin test; for AUC Acute / AUC Inflammatory: i.p., licking AUC as percentage of control AUC, mean ± S.E.M., n=8. The method, then:
Gal-93 and other MEGylated analogs were tested using the formalin test of acute and chronic hyperalgesia in mice. The formalin test was performed according to the method described by Tjolsen et al. (Tjolsen A, Berge O G, Hunskaar S, Rosland J H, Hole K. The Formalin Test: An Evaluation of the Method. Pain 53(2), 237; 1992). More specifically, an injection of 0.5% formalin is made into the plantar region of the right hind paw of a mouse. This elicits a distinct behavioral profile in response to the formalin injection characterized by the mouse licking the affected paw. The behavior is characteristically biphasic in nature. For example, immediately following the injection the mouse intensely licks the paw for approximately 5-10 min. This initial behavior is considered phase 1 (acute) and is thought to be mediated primarily by chemical activation of local C-fibers. The acute phase is followed by a brief latent (usually <5 min) period where there is little or no behavioral activity. A more prolonged (about 20 to 30 min) period of licking then ensues which constitutes phase 2 of the response (inflammatory). Prior to the administration of the test drug or vehicle, each mouse undergoes a 15-min conditioning period in one of several 6″ tall plexiglass cages (4″ diameter) that are placed in front of a mirror. It is in these tubes that mice are observed for the licking activity for the duration of the experiment. Following conditioning, the test substance is dosed i.p. after which the mouse is returned to its home tube. At the TPE of the test substance, formalin is injected sub-dermally into the plantar surface of the right hind foot in a volume of 20 μl with a 27 gauge stainless steel needle attached to a Hamilton syringe. The bevel of the needle is placed facing down toward the skin surface.
The cumulative length of licking for each 2-min time period was recorded. An animal receiving the requisite volume of vehicle was alternated with each mouse given the test peptide. Area under the curve (AUC) and subsequent percent of control for drug-treated animal groups (n=8) was determined using the GraphPad Prism Version 3.03. Total AUC was calculated for both the test substance and control groups for both the acute and inflammatory phases. The AUC for individual animals for each phase was also calculated and converted to percentage of total AUC of control. The average and S.E.M. for both the drug treated and control percentages were then calculated and tested for significant differences.

Square brackets hold non-standard residues; d marks the D form. Ends that are not written are not given here. Peptide text beside a SMILES is read from it. * marks the point of attachment. MeO(CH2CH2O)23CH2CH2CO = COCCOCCOCCOCCOCCOCCOCCOCCOCCOCCOCCOCCOCCOCCOCCOCCOCCOCCOCCOCCOCCOCCOCCOCCC(=O)*; α‑Lnn = alpha-linolenic acid on Lys, CC/C=C\C/C=C\C/C=C\CCCCCCCC(=O)*; NMeW = CN[C@@H](Cc1c[nH]c2ccccc12)C(=O)O; MPEG24 = PEG24 on Lys (Lys-MPEG_24); Palmitoyl = CCCCCCCCCCCCCCCC(=O)*; MPEG4 = PEG4 on Lys (Lys-MPEG_4); Ahx = NCCCCCC(=O)O; Sar = CNCC(=O)O

Regarding `CC[C@H](C)[C@H](NC(=O)[C@H](Cc1ccc(O)cc1)NC(=O)[C@H](Cc1c[nH]cn1)NC(=O)[C@H](CCCNC(=N)N)NC(=O)[C@H](C)NC(=O)CCCCCNC(=O)[C@H](CCCCNC(=O)CCOCCOCCOCCOCCOCCOCCOCCOCCOCCOCCOCCOCCOCCOCCOCCOCCOCCOCCOCCOCCOCCOCCOCCOC)NC(=O)[C@H](CCCCN)NC(=O)[C@H](CCCCN)NC(=O)[C@H](Cc1ccc(O)cc1)NC(C)=O)C(=O)N[C@@H](CC(N)=O)C(=O)N[C@@H](CC(C)C)C(=O)N[C@H](C(=O)N[C@H](C(=O)N[C@@H](CCCNC(=N)N)C(=O)N[C@@H](CCC(N)=O)C(=O)N[C@@H](CCCNC(=N)N)C(=O)N[C@@H](Cc1ccc(O)cc1)C(N)=O)[C@@H](C)O)[C@@H](C)CC` [NPY-B42] (Ac-YKKK(MeO(CH2CH2O)23CH2CH2CO)[Ahx]ARHYINLITRQRY-NH2), in the data set on Sprague-Dawley rats, the “HCT 30 min” value is recorded as 42 ± 2, the “HCT 60 min” value turned out to be 42 ± 1, the “Phenylephrine post-treatment response BP max” value is listed as 161 ± 4 and the “Phenylephrine post-treatment response HR min” value was 291 ± 26. In addition, in the data set on Sprague-Dawley rats, the “difference from vehicle treated rats in any cardiovascular parameter measured” value was “neither Gal-93 or NPY-B42 showed statistically significant difference from vehicle treated rats”, the “glucose 30 min” value is on record as 78 ± 5, the “glucose 60 min” value is listed as 73 ± 4 and the “plasma protein 30 min” value came to 6.5 ± 0.4. For the same compound, in the data set with Sprague-Dawley rats, the “plasma protein 60 min” value came out at 6.8 ± 0.3, the “temperature 30 min” value amounted to 37.2 ± 0.2 and the “temperature 60 min” value was determined as 36.9 ± 0.4.
Take “(N-Methyl-Trp)TLNSAGYLLGPKK(Lys-MPEG4)K-NH2 ([NMeW]TLNSAGYLLGPKKK(MPEG4)K-NH2) [Gal-104]”: in the data set on mice (result in words), the “duration of licking, inflammatory phase” value is listed as “significantly reduced”.
For “(Sar)WTLNSAGYLLGPKK(Lys-Pal)K(Lys-MPEG24)-NH2 ([Sar]WTLNSAGYLLGPKKK(Palmitoyl)KK(MPEG24)-NH2) [Gal-81]”, in the data set with mice, the “AUC Acute” value was 19.7 ± 7.2 and the “AUC Inflammatory” value stood at 2.9 ± 2.2. In the data set with mice (result in words), the “duration of licking, acute phase” value is reported as “significantly reduced” and the “duration of licking, inflammatory phase” value is given as “significantly reduced”.
Take “(Sar)WTLNSAGYLLGPKK(Lys-α-Lnn)K(Lys-MPEG24)-NH2 ([Sar]WTLNSAGYLLGPKKK(α‑Lnn)KK(MPEG24)-NH2) [Gal-100]”: in the data set on mice, the “AUC Acute” value is reported as 83.08 ± 13.34 and the “AUC Inflammatory” value is reported as 33.78 ± 3.04. In the data set on mice (result in words), the “duration of licking, inflammatory phase” value is given as “significantly reduced”.
Turning to “WTLNSAGYLLGPKK(Lys-MPEG4)K-NH2 (WTLNSAGYLLGPKKK(MPEG4)K-NH2) [Gal-103]”, in the data set with mice, the “AUC Acute” value is given as 66.3 ± 14.6 and the “AUC Inflammatory” value came out at 75.6 ± 8.9.
